Source: patent US9708318B2, “Bicyclic heterocycles as FGFR4 inhibitors” (Incyte Corporation, priority 2015, dated 2017)
Where two headings read alike, the source gives them in different places.

Legend:
[1] = biological target: FGFR1 (Homo sapiens (Human), UniProt P11362); assay: FGFR Enzymatic Assay (FRET peptide phosphorylation), FGFR1
[2] = biological target: FGFR2 (Homo sapiens (Human), UniProt P21802); assay: FGFR Enzymatic Assay (FRET peptide phosphorylation), FGFR2; type: biochemical
Procedure: (§1) The inhibitor potency of the exemplified compounds was measured in an enzyme assay that measures peptide phosphorylation using FRET measurements to detect product formation. Inhibitors were serially diluted in DMSO and a volume of 0.5 μL was transferred to the wells of a 384-well plate.
The enzymes were purchased from Millipore or Invitrogen.
(§2) GraphPad prism3 was used to analyze the data.

[3] = biological target: FGFR3 enzyme (Homo sapiens (Human), UniProt P22607); assay: FGFR Enzymatic Assay (FRET peptide phosphorylation), FGFR3; type: biochemical; conditions: read-out: FGFR3 IC50
FGFR3 enzyme, sequence (P22607 23-806): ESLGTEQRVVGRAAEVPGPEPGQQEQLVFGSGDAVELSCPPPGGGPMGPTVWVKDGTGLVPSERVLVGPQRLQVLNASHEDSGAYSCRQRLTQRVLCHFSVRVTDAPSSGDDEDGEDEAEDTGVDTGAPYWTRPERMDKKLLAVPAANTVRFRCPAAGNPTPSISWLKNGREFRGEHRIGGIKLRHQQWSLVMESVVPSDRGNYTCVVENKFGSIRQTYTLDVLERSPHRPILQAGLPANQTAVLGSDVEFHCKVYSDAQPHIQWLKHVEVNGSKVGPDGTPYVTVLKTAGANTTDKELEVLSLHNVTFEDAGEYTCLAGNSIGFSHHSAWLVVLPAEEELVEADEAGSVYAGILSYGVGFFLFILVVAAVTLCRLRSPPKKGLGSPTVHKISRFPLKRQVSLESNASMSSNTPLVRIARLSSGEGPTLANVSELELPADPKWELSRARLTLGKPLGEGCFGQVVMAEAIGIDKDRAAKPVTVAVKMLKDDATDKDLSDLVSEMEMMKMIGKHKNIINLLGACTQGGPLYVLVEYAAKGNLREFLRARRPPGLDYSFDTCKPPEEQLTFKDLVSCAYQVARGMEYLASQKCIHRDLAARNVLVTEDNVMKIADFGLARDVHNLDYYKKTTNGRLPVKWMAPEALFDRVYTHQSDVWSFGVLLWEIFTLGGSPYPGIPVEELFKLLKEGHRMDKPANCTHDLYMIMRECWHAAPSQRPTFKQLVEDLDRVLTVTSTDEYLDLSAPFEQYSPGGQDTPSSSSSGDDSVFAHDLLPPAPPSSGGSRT
Procedure: as §1, §2

[4] = FGFR1 IC50 (nM), pre-incubated for 4 hours
[5] = FGFR1 IC50 (nM), pre-incubated for 5 to 10 minutes
[6] = pre-incubated for 5 to 10 minutes

FGFR1, sequence (P11362 22-822): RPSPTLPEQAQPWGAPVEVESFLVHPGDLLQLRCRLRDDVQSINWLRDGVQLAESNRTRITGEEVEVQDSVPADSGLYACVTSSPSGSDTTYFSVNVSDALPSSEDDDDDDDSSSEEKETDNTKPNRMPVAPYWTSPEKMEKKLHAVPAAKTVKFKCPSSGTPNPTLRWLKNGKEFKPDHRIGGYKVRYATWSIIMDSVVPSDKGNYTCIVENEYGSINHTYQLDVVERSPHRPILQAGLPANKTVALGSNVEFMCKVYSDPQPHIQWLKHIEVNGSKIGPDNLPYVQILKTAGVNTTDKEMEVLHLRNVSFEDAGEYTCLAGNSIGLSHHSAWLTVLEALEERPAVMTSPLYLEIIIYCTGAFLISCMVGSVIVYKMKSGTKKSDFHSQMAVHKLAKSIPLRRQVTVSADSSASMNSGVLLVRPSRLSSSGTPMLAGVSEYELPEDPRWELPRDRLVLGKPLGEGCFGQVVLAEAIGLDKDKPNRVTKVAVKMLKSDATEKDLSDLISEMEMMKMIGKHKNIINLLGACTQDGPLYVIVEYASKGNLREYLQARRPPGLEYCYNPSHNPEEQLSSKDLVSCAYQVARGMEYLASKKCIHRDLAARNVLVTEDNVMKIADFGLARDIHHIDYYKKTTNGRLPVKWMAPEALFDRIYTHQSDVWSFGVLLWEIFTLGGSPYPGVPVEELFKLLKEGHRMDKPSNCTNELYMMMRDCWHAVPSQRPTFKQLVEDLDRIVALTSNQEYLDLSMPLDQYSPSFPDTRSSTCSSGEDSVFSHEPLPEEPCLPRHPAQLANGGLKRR
FGFR2, sequence (P21802 22-821): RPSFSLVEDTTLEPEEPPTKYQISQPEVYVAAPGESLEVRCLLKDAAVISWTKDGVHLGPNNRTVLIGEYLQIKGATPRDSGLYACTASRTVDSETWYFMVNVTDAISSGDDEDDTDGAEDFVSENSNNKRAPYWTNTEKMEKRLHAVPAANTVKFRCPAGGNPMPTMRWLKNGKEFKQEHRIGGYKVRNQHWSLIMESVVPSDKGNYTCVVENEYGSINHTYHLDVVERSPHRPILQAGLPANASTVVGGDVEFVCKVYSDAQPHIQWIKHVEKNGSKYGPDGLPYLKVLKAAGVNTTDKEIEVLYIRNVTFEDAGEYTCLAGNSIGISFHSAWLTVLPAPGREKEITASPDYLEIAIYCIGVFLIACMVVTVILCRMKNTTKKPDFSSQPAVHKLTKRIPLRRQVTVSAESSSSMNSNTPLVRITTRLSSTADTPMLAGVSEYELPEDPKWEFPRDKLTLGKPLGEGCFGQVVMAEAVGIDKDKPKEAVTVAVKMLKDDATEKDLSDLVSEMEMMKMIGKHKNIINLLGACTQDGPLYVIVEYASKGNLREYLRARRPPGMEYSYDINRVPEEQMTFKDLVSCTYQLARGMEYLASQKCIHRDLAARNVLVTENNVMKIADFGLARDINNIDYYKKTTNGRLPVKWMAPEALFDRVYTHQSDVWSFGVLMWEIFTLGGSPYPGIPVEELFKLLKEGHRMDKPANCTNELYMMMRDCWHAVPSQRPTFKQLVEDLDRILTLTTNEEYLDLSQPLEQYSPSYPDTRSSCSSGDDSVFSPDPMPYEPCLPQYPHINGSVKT

| Compound | IC50 [1, 4] | IC50 ([2]; pre-incubated for 4 hours) | IC50 ([3]; pre-incubated for 4 hours) | IC50 [1, 5] | IC50 [2, 6] | IC50 [3, 6] | IC50 ([1]; read-out: FGFR1 IC50, pre-incubated for 4 hours) |
| --- | --- | --- | --- | --- | --- | --- | --- |
| COc1cc(OC)c(F)c(N2Cc3cnc(-c4cn(C)nc4C)cc3N(CC3CCOCC3)C2=O)c1F [Example 37, 3-(2,6-difluoro-3,5-dimethoxyphenyl)-7-(1,3-dimethyl-1H-pyrazol-4-yl)-1-((tetrahydro-2H-pyran-4-yl)methyl)-3,4-dihydropyrido[4,3-d]pyrimidin-2(1H)-one] | 10 to 30 nM | < 10 nM | < 10 nM | – | – | – | – |
| COc1cc(OC)c(F)c(N2Cc3cnc(-c4cn(CCN5CCOCC5)nc4C)cc3C3(CC3)C2=O)c1F [Example 52, 2′-(2,6-difluoro-3,5-dimethoxyphenyl)-6′-(3-methyl-1-(2-morpholinoethyl)-1H-pyrazol-4-yl)-1′H-spiro[cyclopropane-1,4′-[2,7]naphthyridin]-3′(2′H)-one] | 30 to 200 nM | 10 to 30 nM | < 10 nM | – | – | – | – |
| CCc1nnc(CN2C(=O)N(c3c(F)c(OC)cc(OC)c3F)Cc3cnc(-c4cn(C)nc4C)cc32)o1 [Example 67, 3-(2,6-difluoro-3,5-dimethoxyphenyl)-7-(1,3-dimethyl-1H-pyrazol-4-yl)-1-((5-ethyl-1,3,4-oxadiazol-2-yl)methyl)-3,4-dihydropyrido[4,3-d]pyrimidin-2(1H)-one] | […] | < 10 nM | < 10 nM | – | – | – | – |
| COc1cc(OC)c(F)c(N2Cc3cnc(-c4cn(C)nc4C)cc3N(Cc3ccccn3)C2=O)c1F [Example 94, 3-(2,6-difluoro-3,5-dimethoxyphenyl)-7-(1,3-dimethyl-1H-pyrazol-4-yl)-1-(pyridin-2-ylmethyl)-3,4-dihydropyrido[4,3-d]pyrimidin-2(1H)-one] | – | < 10 nM | < 10 nM | – | – | – | < 10 nM |
